Columns and labels:
[1] = test system: HIV-1 protease site-directed mutants (N88S, L63P, V77I, M46L) in resistance test vector; test: Phenotypic susceptibility assay of resistance test vectors with site-directed mutations in PR
From the text: The resistance test vectors containing a functional luciferase gene cassette were constructed and host cells were transfected with the resistance test vector DNA. […] The resistance test vector viral particles produced by transfecting the resistance test vector DNA into host cells, either in the presence or absence of protease inhibitors, were used to infect target host cells grown either in the absence of NRTI or NNRTI or in the presence of increasing concentrations of the drug. Luciferase activity in infected target host cells in the presence of drug was compared to the luciferase activity in infected target host cells in the absence of drug. […] The IC50 values were determined by plotting percent drug inhibition vs. log10 drug concentration.
Host cells were seeded in 10-cm-diameter dishes and were transfected one day after plating with resistance test vector plasmid DNA and the envelope expression vector. Transfections were performed using a calcium-phosphate co-precipitation procedure. The cell culture media containing the DNA precipitate was replaced with fresh medium, from one to 24 hours, after transfection. Cell culture media containing resistance test vector viral particles was harvested one to four days after transfection and was passed through a 0.45-mm filter before being stored at −80° C. HIV capsid protein (p24) levels in the harvested cell culture media were determined by an EIA method as described by the manufacturer (SIAC; Frederick, Md.). Before infection, target cells (293 and 293/T) were plated in cell culture media. Control infections were performed using cell culture media from mock transfections (no DNA) or transfections containing the resistance test vector plasmid DNA without the envelope expression plasmid. One to three or more days after infection the media was removed and cell lysis buffer (Promega) was added to each well. Cell lysates were assayed for luciferase activity. The inhibitory effect of the drug was determined using the following equation: % luciferase inhibition=[1−(RLUluc[drug]RLUluc)]×100 where RLUluc [drug] is the relative light unit of luciferase activity in infected cells in the presence of drug and RLUluc is the Relative Light Unit of luciferase activity in infected cells in the absence of drug. IC50 values were obtained from the sigmoidal curves that were generated from the data by plotting the percent inhibition of luciferase activity vs. the log10 drug concentration.
Mutations are introduced into the resistance test vector through any of the widely known methods for site-directed mutagenesis. […] A resistance test vector containing the specific mutation or group of mutations are then tested using the phenotypic susceptibility assay described above and the susceptibility profile is compared to that of a genetically defined wild-type (drug susceptible) resistance test vector which lacks the specific mutations.
Resistance test vectors were constructed containing the N88S mutation alone and in combination with other substitutions in PR (L63P, V77I and M46L) known to modulate the HIV susceptibility to PRIs. Mutations were introduced into the resistance test vector using the mega-primer PCR method for site-directed mutagenesis.

[2] = test system: HIV-1 variants with protease substitutions; conditions: both substitutions G48V-L90M; cited from earlier work
[3] = test system: HIV-1 patient-derived protease and reverse transcriptase segments (N88S in PR) in resistance test vectors; test: Phenotypic drug susceptibility test with resistance test vectors from patient samples; assay type: cell-based; conditions: patient sample RTV-627
HIV-1 = conditions: cited from earlier work
[4] = test system: HIV-1 patient viruses with protease L90M; test: Phenotypic susceptibility profiles of 333 patient virus samples with L90M (not 30 or 50); assay type: cell-based; conditions: for % with SQV FC > 2.5 / wt % > 2.5 / wt % > 10: L90M
[5] = test system: HIV-1 patient viruses with protease L90M; test: Phenotypic susceptibility profiles of 58 patient virus samples with L90M, no other primary mutations; assay type: cell-based; conditions: for % w with SQV FC > 2.5: L90M; for % FC > 2.5: SQV

For CC(C)(C)NC(=O)[C@@H]1C[C@@H]2CCCC[C@@H]2CN1C[C@@H](O)[C@H](Cc1ccccc1)NC(=O)[C@H](CC(N)=O)NC(=O)c1ccc2ccccc2n1 [saquinavir], the “Fold Change vs. reference” value ([1]; site-directed mutation N88S) was 0.47 fold, the “Fold Change vs. reference” value ([1]; site-directed mutations L63P) was 1.04 fold and the “Fold Change vs. reference” value ([1]; site-directed mutations L63P, N88S) was 1.44 fold. The “Fold Change vs. reference” value ([1]; site-directed mutations M46L, L63P, V77I, N88S) was 1.45 fold, the loss of susceptibility [2] was > 100 fold and the “change in susceptibility” value [3] was “increase”. The “patients in whom resistant variants emerge” value (HIV-1; after 1 year of monotherapy with 1,800 mg daily) was “approximately 45%”, the frequency of resistance (HIV-1; combination therapy with zidovudine, zalcitabine, and saquinavir) was 22% and the “% with SQV FC > 2.5” value ([4]; number of secondary mutations (weighted count) 0) was 23.5%. The “% with SQV FC > 2.5” value ([4]; number of secondary mutations (weighted count) 1) was 25.0%, the “% with SQV FC > 2.5” value ([4]; number of secondary mutations (weighted count) 2) was 69.4% and the “% with SQV FC > 2.5” value ([4]; number of secondary mutations (weighted count) 3) was 85.7%. For the same molecule, the “% with SQV FC > 2.5” value ([4]; number of secondary mutations (weighted count) 4) was 97.3%, the “% with SQV FC > 2.5” value ([4]; number of secondary mutations (weighted count) 5) was 100% and the “% with SQV FC > 2.5” value ([4]; number of secondary mutations (weighted count) 6 or more) was 100%. For the same molecule, the “wt % > 2.5” value ([4]; Saquinavir FC>2.5, position 10 wild type) was 56.4%, the “wt % > 2.5” value ([4]; Saquinavir FC>2.5, position 20 wild type) was 73.9% and the “wt % > 2.5” value ([4]; Saquinavir FC>2.5, position 33 wild type) was 77.4%. The “wt % > 2.5” value ([4]; Saquinavir FC>2.5, position 36 wild type) was 74.9%, the “wt % > 2.5” value ([4]; Saquinavir FC>2.5, position 37 wild type) was 76.4% and the “wt % > 2.5” value ([4]; Saquinavir FC>2.5, position 48 wild type) was 78.1%. The “wt % > 2.5” value ([4]; Saquinavir FC>2.5, position 53 wild type) was 77.3%, the “wt % > 2.5” value ([4]; Saquinavir FC>2.5, position 54 wild type) was 68.1% and the “wt % > 2.5” value ([4]; Saquinavir FC>2.5, position 63 wild type) was 37.5%. The “wt % > 2.5” value ([4]; Saquinavir FC>2.5, position 64 wild type) was 83.1%, the “wt % > 2.5” value ([4]; Saquinavir FC>2.5, position 66 wild type) was 78.4% and the “wt % > 2.5” value ([4]; Saquinavir FC>2.5, position 71 wild type) was 58.0%. For the same molecule, the “wt % > 2.5” value ([4]; Saquinavir FC>2.5, position 73 wild type) was 73.6%, the “wt % > 2.5” value ([4]; Saquinavir FC>2.5, position 84 wild type) was 70.7% and the “wt % > 2.5” value ([4]; Saquinavir FC>2.5, position 93 wild type) was 85.6%. The “mt % > 2.5” value ([4]; Saquinavir FC>2.5, listed as 90: all samples with L90M) was 79.3%, the “wt % > 10” value ([4]; Saquinavir FC>10, position 10 wild type) was 20.5% and the “wt % > 10” value ([4]; Saquinavir FC>10, position 20 wild type) was 33.9%. The “wt % > 10” value ([4]; Saquinavir FC>10, position 23 wild type) was 42.4%, the “wt % > 10” value ([4]; Saquinavir FC>10, position 35 wild type) was 38.8% and the “wt % > 10” value ([4]; Saquinavir FC>10, position 36 wild type) was 34.2%. The “wt % > 10” value ([4]; Saquinavir FC>10, position 48 wild type) was 40.8%, the “wt % > 10” value ([4]; Saquinavir FC>10, position 53 wild type) was 39.8% and the “wt % > 10” value ([4]; Saquinavir FC>10, position 54 wild type) was 32.8%. The “wt % > 10” value ([4]; Saquinavir FC>10, position 58 wild type) was 41.6%, the “wt % > 10” value ([4]; Saquinavir FC>10, position 62 wild type) was 38.5% and the “wt % > 10” value ([4]; Saquinavir FC>10, position 64 wild type) was 46.1%. The “wt % > 10” value ([4]; Saquinavir FC>10, position 71 wild type) was 29.0%, the “wt % > 10” value ([4]; Saquinavir FC>10, position 73 wild type) was 39.4% and the “wt % > 10” value ([4]; Saquinavir FC>10, position 77 wild type) was 49.5%. For the same molecule, the “wt % > 10” value ([4]; Saquinavir FC>10, position 84 wild type) was 24.9%, the “wt % > 10” value ([4]; Saquinavir FC>10, position 93 wild type) was 50.7% and the “mt % > 10” value ([4]; Saquinavir FC>10, listed as 90: all samples with L90M) was 43.5%. For the same molecule, the “% w with SQV FC > 2.5” value ([5]; number of secondary mutations 0) was 53%, the “% w with SQV FC > 2.5” value ([5]; number of secondary mutations 1) was 47% and the “% w with SQV FC > 2.5” value ([5]; number of secondary mutations 2) was 43%. For the same molecule, the “% w with SQV FC > 2.5” value ([5]; number of secondary mutations 3) was 68%, the “% w with SQV FC > 2.5” value ([5]; number of secondary mutations 4) was 77% and the “% w with SQV FC > 2.5” value ([5]; number of secondary mutations 5) was 100%. The “% w with SQV FC > 2.5” value ([5]; number of secondary mutations 6) was 100%, the “% FC > 2.5” value ([5]; L90M + mutation at position 10) was 65% and the “% FC > 2.5” value ([5]; L90M + mutation at position 71) was 78%. For the same molecule, the “% FC > 2.5” value ([5]; L90M + mutation at position 71, listed as SQV) was 78%, the “% FC > 2.5” value ([5]; L90M + mutation at position 73) was 79% and the “% FC > 2.5” value ([5]; L90M + mutation at position 73, listed as SQV) was 79%. The “% FC > 2.5” value ([5]; L90M + mutation at position 77) was 76% and the “% FC > 2.5” value ([5]; listed as 90: all viruses with L90M) was 55%.

From patent US7138231B2 (priority 2000, dated 2006)
